Results as given in patent US12624044B2, “SMARCA degraders and uses thereof” (Kymera Therapeutics, Inc., priority 2019, dated 2026).

Target: SMARCA2 (Homo sapiens, UniProt P51531)
Assay: MSD SMARCA2 degradation in NCI-H1299 cell line (24 h)
Assay type: cell-based
Design: HC: NCI-H1299 cells treated with DMSO; host or cells: NCI-H1299
Settings: for Dmax: NCI-H1299, NCI-H1299 cells; for DC50: NCI-H1299 cells, read-out: SMARCA2 MSD H1299 degradation 24 h: External Abs-DC50
Method in brief: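 NCI-H1299 cells treated 24 h with a 3-fold, 9-point compound dilution series, then lysed in RIPA with protease inhibitor. SMARCA2 in lysate-coated MSD plates detected with rabbit anti-SMARCA2 (0.3 ug/ml) and SULFO-TAG secondary. Relative SMARCA2 level normalized between DMSO-treated H1299 cells and SMARCA2-negative A2780 cells; Dmax % binned A–D.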

SMARCA2, sequence (P51531 whole entry): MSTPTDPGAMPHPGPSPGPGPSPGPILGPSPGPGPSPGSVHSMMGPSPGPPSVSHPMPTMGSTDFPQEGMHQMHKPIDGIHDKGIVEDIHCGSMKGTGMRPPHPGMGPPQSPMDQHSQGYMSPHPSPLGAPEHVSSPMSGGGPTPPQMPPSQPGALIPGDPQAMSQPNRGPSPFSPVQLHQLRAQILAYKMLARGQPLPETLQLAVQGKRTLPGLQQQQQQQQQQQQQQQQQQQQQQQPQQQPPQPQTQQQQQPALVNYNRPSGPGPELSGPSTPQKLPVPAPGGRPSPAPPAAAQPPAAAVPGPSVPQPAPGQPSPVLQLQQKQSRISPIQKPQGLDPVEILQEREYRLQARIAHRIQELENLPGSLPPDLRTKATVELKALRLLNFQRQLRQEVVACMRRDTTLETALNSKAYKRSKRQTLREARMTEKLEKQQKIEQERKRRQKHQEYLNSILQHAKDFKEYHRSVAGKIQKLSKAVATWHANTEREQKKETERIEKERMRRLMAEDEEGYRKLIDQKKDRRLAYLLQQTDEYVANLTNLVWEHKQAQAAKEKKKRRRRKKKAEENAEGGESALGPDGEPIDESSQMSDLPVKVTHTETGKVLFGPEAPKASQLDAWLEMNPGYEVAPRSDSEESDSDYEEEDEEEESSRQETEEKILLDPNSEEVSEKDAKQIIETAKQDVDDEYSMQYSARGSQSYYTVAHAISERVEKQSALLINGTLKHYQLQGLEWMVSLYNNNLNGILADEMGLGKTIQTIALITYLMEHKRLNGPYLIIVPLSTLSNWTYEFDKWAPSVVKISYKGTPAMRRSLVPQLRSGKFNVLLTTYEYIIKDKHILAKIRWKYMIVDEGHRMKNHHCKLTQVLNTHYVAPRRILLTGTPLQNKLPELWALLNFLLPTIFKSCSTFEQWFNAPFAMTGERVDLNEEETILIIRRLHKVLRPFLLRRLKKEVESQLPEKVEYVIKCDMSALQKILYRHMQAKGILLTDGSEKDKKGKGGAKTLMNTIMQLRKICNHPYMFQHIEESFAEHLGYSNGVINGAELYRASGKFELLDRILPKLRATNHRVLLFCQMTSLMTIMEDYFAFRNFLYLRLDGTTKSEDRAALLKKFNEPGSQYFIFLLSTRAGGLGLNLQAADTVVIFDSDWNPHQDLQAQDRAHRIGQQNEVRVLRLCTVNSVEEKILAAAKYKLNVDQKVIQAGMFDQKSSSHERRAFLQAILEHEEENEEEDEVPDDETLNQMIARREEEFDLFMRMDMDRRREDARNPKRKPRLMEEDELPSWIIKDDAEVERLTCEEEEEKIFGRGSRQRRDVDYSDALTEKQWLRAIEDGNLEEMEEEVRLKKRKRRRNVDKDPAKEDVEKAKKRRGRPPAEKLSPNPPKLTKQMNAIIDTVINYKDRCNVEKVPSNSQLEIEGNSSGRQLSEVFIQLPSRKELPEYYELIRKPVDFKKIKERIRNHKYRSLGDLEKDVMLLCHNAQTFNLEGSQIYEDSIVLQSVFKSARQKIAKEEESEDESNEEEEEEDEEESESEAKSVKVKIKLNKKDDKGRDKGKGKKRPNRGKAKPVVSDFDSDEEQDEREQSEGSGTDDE

SMILES	Dmax	DC50
Cn1c(=O)n(C2CCC(=O)NC2=O)c2cccc(CCCOCCN3CCN(Cc4ccc(-c5cc(-c6ccccc6O)nnc5N)cc4)CC3)c21 (stereo not drawn) [I-106]	50 to 70%	100 to 500 nM
Cn1c(=O)n(C2CCC(=O)NC2=O)c2cccc(CCCOCCOCCN3CCN(Cc4ccc(-c5cc(-c6ccccc6O)nnc5N)cc4)CC3)c21 (stereo not drawn) [I-107]	50 to 70%	100 to 500 nM
Cn1c(=O)n(C2CCC(=O)NC2=O)c2cccc(CCCOCCOCCOCCN3CCN(Cc4ccc(-c5cc(-c6ccccc6O)nnc5N)cc4)CC3)c21 (stereo not drawn) [I-108]	< 50%	> 1000 nM
CN(Cc1ccc(N2CCN(c3cc(-c4ccccc4O)nnc3N)CC2)cc1)C1CCN(Cc2cccc3c2n(C)c(=O)n3C2CCC(=O)NC2=O)CC1 (stereo not drawn) [I-109]	70 to 90%	100 to 500 nM
CN(CCCN1CCC(c2cccc3c2n(C)c(=O)n3C2CCC(=O)NC2=O)CC1)Cc1ccc(N2CCN(c3cc(-c4ccccc4O)nnc3N)CC2)cc1 (stereo not drawn) [I-110]	> 90%	100 to 500 nM
CN(CC[C@@H]1CN(CCCc2cccc3c2n(C)c(=O)n3C2CCC(=O)NC2=O)CCO1)Cc1ccc(N2CCN(c3cc(-c4ccccc4O)nnc3N)CC2)cc1 (stereo partly drawn) [I-111]	70 to 90%	100 to 500 nM
CN(CCCOCCCc1cccc2c1n(C)c(=O)n2C1CCC(=O)NC1=O)Cc1ccc(N2CCN(c3cc(-c4ccccc4O)nnc3N)CC2)cc1 (stereo not drawn) [I-112]	< 50%	> 1000 nM
CN1C(=O)CCC(n2c(=O)n(C)c3c(CCCOCCOCCNCc4ccc(N5CCN(c6cc(-c7ccccc7O)nnc6N)CC5)cc4)cccc32)C1=O (stereo not drawn) [I-113]	< 50%	> 1000 nM
CN(Cc1ccc(N2CCN(c3cc(-c4ccccc4O)nnc3N)CC2)cc1)CC1CCN(c2ccc3c(c2)n(C)c(=O)n3C2CCC(=O)NC2=O)CC1 (stereo not drawn) [I-114]	50 to 70%	< 100 nM
Cn1c(=O)n(C2CCC(=O)NC2=O)c2cccc(CCCOC3CCN(Cc4ccc(N5CCN(c6cc(-c7ccccc7O)nnc6N)CC5)cc4)CC3)c21 (stereo not drawn) [I-115]	70 to 90%	100 to 500 nM
Nc1nnc(-c2ccccc2O)cc1N1CCN(c2ccc(CNCCOCCCc3cccc4c3oc(=O)n4C3CCC(=O)NC3=O)cc2)CC1 (stereo not drawn) [I-116]	50 to 70%	501 to 1000 nM
CN(Cc1ccc(N2CCN(c3cc(-c4ccccc4O)nnc3N)CC2)cc1)C[C@@H]1CN(CCCc2cccc3c2n(C)c(=O)n3C2CCC(=O)NC2=O)CCO1 (stereo partly drawn) [I-117]	70 to 90%	100 to 500 nM
Cn1c(=O)n(C2CCC(=O)NC2=O)c2cccc(C#CCN3CCO[C@H](CNCc4ccc(N5CCN(c6cc(-c7ccccc7O)nnc6N)CC5)cc4)C3)c21 (stereo partly drawn) [I-118]	< 50%	> 1000 nM
CN(CCCCOCCCCc1cccc2c1n(C)c(=O)n2C1CCC(=O)NC1=O)Cc1ccc(N2CCN(c3cc(-c4ccccc4O)nnc3N)CC2)cc1 (stereo not drawn) [I-119]	70 to 90%	100 to 500 nM
Cn1c(=O)n(C2CCC(=O)NC2=O)c2ccc(CCCN3CCO[C@@H](CNCc4ccc(N5CCN(c6cc(-c7ccccc7O)nnc6N)CC5)cc4)C3)cc21 (stereo partly drawn) [I-120]	50 to 70%	501 to 1000 nM
Cn1c(=O)n(C2CCC(=O)NC2=O)c2cccc(CCCO[C@H]3C[C@H](N(C)Cc4ccc(N5CCN(c6cc(-c7ccccc7O)nnc6N)CC5)cc4)C3)c21 (stereo partly drawn) [I-121]	70 to 90%	< 100 nM
CN(CCCCc1ccc2c(c1)n(C)c(=O)n2C1CCC(=O)NC1=O)Cc1ccc(N2CCN(c3cc(-c4ccccc4O)nnc3N)CC2)cc1 (stereo not drawn) [I-122]	< 50%	> 1000 nM
CN(CCOCCOCCCc1ccc2c(c1)oc(=O)n2C1CCC(=O)NC1=O)Cc1ccc(N2CCN(c3cc(-c4ccccc4O)nnc3N)CC2)cc1 (stereo not drawn) [I-123]	70 to 90%	100 to 500 nM
Cn1c(=O)n(C2CCC(=O)NC2=O)c2cccc(CCCOCC3CN(Cc4ccc(N5CCN(c6cc(-c7ccccc7O)nnc6N)CC5)cc4)C3)c21 (stereo not drawn) [I-124]	70 to 90%	100 to 500 nM
CN(CCOCCCc1ccc2c(c1)n(C)c(=O)n2C1CCC(=O)NC1=O)Cc1ccc(N2CCN(c3cc(-c4ccccc4O)nnc3N)CC2)cc1 (stereo not drawn) [I-125]	< 50%	> 1000 nM
Nc1nnc(-c2ccccc2O)cc1N1CCN(c2ccc(CNCCOCCOCCCc3ccc4c(c3)oc(=O)n4C3CCC(=O)NC3=O)cc2)CC1 (stereo not drawn) [I-126]	> 90%	100 to 500 nM
Nc1nnc(-c2ccccc2O)cc1N1CCN(c2ccc(CNCCCOCCCc3ccc4c(c3)oc(=O)n4C3CCC(=O)NC3=O)cc2)CC1 (stereo not drawn) [I-127]	50 to 70%	> 1000 nM
Cn1c(=O)n(C2CCC(=O)NC2=O)c2ccc(CCCCOCCCCNCc3ccc(N4CCN(c5cc(-c6ccccc6O)nnc5N)CC4)cc3)cc21 (stereo not drawn) [I-128]	> 90%	< 100 nM

SMILES	Dmax	DC50
CC(C)(CCOCCCc1cccc2c1oc(=O)n2C1CCC(=O)NC1=O)NCc1ccc(N2CCN(c3cc(-c4ccccc4O)nnc3N)CC2)cc1 (stereo not drawn) [I-129]	> 90%	> 1000 nM
Cn1c(=O)n(C2CCC(=O)NC2=O)c2ccc(CN3CCN(CCO[C@H]4C[C@H](NCc5ccc(N6CCN(c7cc(-c8ccccc8O)nnc7N)CC6)cc5)C4)CC3)cc21 (stereo partly drawn) [I-131]	70 to 90%	> 1000 nM
CN(Cc1ccc(N2CCN(c3cc(-c4ccccc4O)nnc3N)CC2)cc1)CC1CCN(Cc2cccc3c2n(C)c(=O)n3C2CCC(=O)NC2=O)CC1 (stereo not drawn) [I-132, 3-(4-((4-(((4-(4-(3-amino-6-(2-hydroxyphenyl)pyridazin-4-yl)piperazin-1-yl)benzyl)(methyl)amino)methyl)piperidin-1-yl)methyl)-3-methyl-2-oxo-2,3-dihydro-1H-benzo[d]imidazol-1-yl)piperidine-2,6-dione]	> 90%	< 100 nM
Cn1c(=O)n(C2CCC(=O)NC2=O)c2cccc(CCCOCCOCCOCCOCCN3CCN(Cc4ccc(-c5cc(-c6ccccc6O)nnc5N)cc4)CC3)c21 (stereo not drawn) [I-133]	< 50%	> 1000 nM
Cn1c(=O)n(C2CCC(=O)NC2=O)c2ccc(CCCOCCOCCOCCN3CCN(Cc4ccc(-c5cc(-c6ccccc6O)nnc5N)cc4)CC3)cc21 (stereo not drawn) [I-134]	50 to 70%	100 to 500 nM
Cn1c(=O)n(C2CCC(=O)NC2=O)c2ccc(CCCOCCOCCN3CCN(Cc4ccc(-c5cc(-c6ccccc6O)nnc5N)cc4)CC3)cc21 (stereo not drawn) [I-135]	50 to 70%	100 to 500 nM
Cn1c(=O)n(C2CCC(=O)NC2=O)c2ccc(CCCOCCCOCCN3CCN(Cc4ccc(-c5cc(-c6ccccc6O)nnc5N)cc4)CC3)cc21 (stereo not drawn) [I-136]	50 to 70%	100 to 500 nM
Cn1c(=O)n(C2CCC(=O)NC2=O)c2ccc(C#CCOCCOCCN3CCN(Cc4ccc(-c5cc(-c6ccccc6O)nnc5N)cc4)CC3)cc21 (stereo not drawn) [I-137]	< 50%	> 1000 nM
Cn1c(=O)n(C2CCC(=O)NC2=O)c2ccc(CCCOCCCCN3CCN(Cc4ccc(-c5cc(-c6ccccc6O)nnc5N)cc4)CC3)cc21 (stereo not drawn) [I-138]	50 to 70%	< 100 nM
Cn1c(=O)n(C2CCC(=O)NC2=O)c2ccc(CCCN3CCN(Cc4ccc(-c5cc(-c6ccccc6O)nnc5N)cc4)CC3)cc21 (stereo not drawn) [I-139]	50 to 70%	< 100 nM
Cn1c(=O)n(C2CCC(=O)NC2=O)c2cccc(CCCOCCCN3CCN(Cc4ccc(-c5cc(-c6ccccc6O)nnc5N)cc4)CC3)c21 (stereo not drawn) [I-140]	70 to 90%	< 100 nM
Cn1c(=O)n(C2CCC(=O)NC2=O)c2ccc(COCCCN3CCN(Cc4ccc(-c5cc(-c6ccccc6O)nnc5N)cc4)CC3)cc21 (stereo not drawn) [I-141]	< 50%	100 to 500 nM
Cn1c(=O)n(C2CCC(=O)NC2=O)c2ccc(CCCCCCCCOc3cccc(CN4CCN(c5cc(-c6ccccc6O)nnc5N)CC4)c3)cc21 (stereo not drawn) [I-142]	< 50%	> 1000 nM
Cn1c(=O)n(C2CCC(=O)NC2=O)c2ccc(CCCCCCCCCOc3cccc(CN4CCN(c5cc(-c6ccccc6O)nnc5N)CC4)c3)cc21 (stereo not drawn) [I-143]	< 50%	> 1000 nM
Cn1c(=O)n(C2CCC(=O)NC2=O)c2ccc(CCCCCCCCCCOc3cccc(CN4CCN(c5cc(-c6ccccc6O)nnc5N)CC4)c3)cc21 (stereo not drawn) [I-144]	50 to 70%	> 1000 nM
Cn1c(=O)n(C2CCC(=O)NC2=O)c2ccc(CCCCCCCCCCCOc3cccc(CN4CCN(c5cc(-c6ccccc6O)nnc5N)CC4)c3)cc21 (stereo not drawn) [I-145]	< 50%	> 1000 nM
Cn1c(=O)n(C2CCC(=O)NC2=O)c2ccc(CCCCCCCN3CCC(Cn4cc(-c5cc(-c6ccccc6O)nnc5N)cn4)CC3)cc21 (stereo not drawn) [I-146]	70 to 90%	< 100 nM
Cn1c(=O)n(C2CCC(=O)NC2=O)c2ccc(CCCCCCCCN3CCC(Cn4cc(-c5cc(-c6ccccc6O)nnc5N)cn4)CC3)cc21 (stereo not drawn) [I-147]	70 to 90%	100 to 500 nM
Cn1c(=O)n(C2CCC(=O)NC2=O)c2ccc(CCCCCCCCCN3CCC(Cn4cc(-c5cc(-c6ccccc6O)nnc5N)cn4)CC3)cc21 (stereo not drawn) [I-148]	> 90%	< 100 nM
Cn1c(=O)n(C2CCC(=O)NC2=O)c2cccc(CCCCCCCN3CCC(Cn4cc(-c5cc(-c6ccccc6O)nnc5N)cn4)CC3)c21 (stereo not drawn) [I-149, 3-[4-[7-[4-[[4-[3-amino-6-(2-hydroxyphenyl)pyridazin-4-yl]pyrazol-1-yl]methyl]-1-piperidyl]heptyl]-3-methyl-2-oxo-benzimidazol-1-yl]piperidine-2,6-dione]	> 90%	< 100 nM
Cn1c(=O)n(C2CCC(=O)NC2=O)c2cccc(CCCCCCCCN3CCC(Cn4cc(-c5cc(-c6ccccc6O)nnc5N)cn4)CC3)c21 (stereo not drawn) [I-150]	> 90%	< 100 nM
Cn1c(=O)n(C2CCC(=O)NC2=O)c2cccc(CCCCCCCCCN3CCC(Cn4cc(-c5cc(-c6ccccc6O)nnc5N)cn4)CC3)c21 (stereo not drawn) [I-151]	> 90%	100 to 500 nM
